This experiment has as its system PBMC (T cell proliferation). The experiment in a line: T cell proliferation assay, PHA-stimulated human PBMC (BrdU ELISA). The format is cell-based. In a few lines: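 BrdU ELISA readout of proliferation at 48 hours. Cells: human PBMC from healthy donors in 10% dialyzed FCS/RPMI1640, 1×10^5 per well, activated by 2 μg/ml phytohaemagglutinin in the presence of compound.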
For orientation: Incorporation of labelled thymidine or its analogues reports DNA synthesis.

[1] abbreviates: PHA-stimulated human PBMC, 48 hours, BrdU, column D, activity classes 1-4, read-out: IC50 (Tcell proliferation).
[2] abbreviates: human PBMC, 2 μg/ml PHA, 48 hours, BrdU, read-out: D: IC50 (Tcell proliferation).

pIC50: −log10 of the molar value. Where two headings read alike, the source gives them in different places.

This note sets out measurements from US8592456B2 (4SC Discovery GmbH, priority 2011, dated 2013).

As for `Cc1nnc(-c2c(-c3c(F)cccc3Cl)noc2-c2cnn(-c3cccnc3)c2C(F)(F)F)o1` [IB-10, 2-(3-(2-chloro-6-fluorophenyl)-5-(1-(pyridin-3-yl)-5-(trifluoromethyl)-1H-pyrazol-4-yl)isoxazol-4-yl)-5-methyl-1,3,4-oxadiazole], under setting [1], the pIC50 was 6.00 to 7.00.

As for `COC(=O)Nc1c(-c2c(F)cccc2Cl)noc1-c1cnn(-c2cccc(F)c2)c1C(F)(F)F` [Example 138, methyl 3-(2-chloro-6-fluorophenyl)-5-[1-(3-fluorophenyl)-5-(trifluoromethyl)-1H-pyrazol-4-yl]isoxazol-4-ylcarbamate], the pIC50 under setting [2] is 6.00 to 7.00.

As for `COC(=O)c1c(-c2c(F)cccc2Cl)noc1-c1cnn(C2CCS(=O)(=O)C2)c1C(F)(F)F` (stereo not drawn) [Example 103, methyl 3-(2-chloro-6-fluorophenyl)-5-(1-(3-hydrazinyltetrahydrothiophene 1,1-dioxide)-5-(trifluoromethyl)-1H-pyrazol-4-yl)isoxazole-4-carboxylate], the pIC50 under setting [2] was 6.00 to 7.00.

For `Cc1nnc(-c2c(-c3c(F)cccc3Cl)noc2-c2cnn(-c3cccc(S(N)(=O)=O)c3)c2C(F)(F)F)s1` [IB-23, 3-(4-(3-(2-chloro-6-fluorophenyl)-4-(5-methyl-1,3,4-thiadiazol-2-yl)isoxazol-5-yl)-5-(trifluoromethyl)-1H-pyrazol-1-yl)benzenesulfonamide], the pIC50 under setting [1] is 5.00 to 6.00.

For `CCOC(=O)c1c(-c2onc(-c3c(F)cccc3Cl)c2C(=O)OC)cnn1CC(C)C` [Example 29], the pIC50 under setting [2] is 5.00 to 6.00.

`O=C(O)c1c(-c2c(F)cccc2Cl)noc1-c1cnn(Cc2ccccc2F)c1C(F)(F)F` [Example B-86, 3-(2-chloro-6-fluorophenyl)-5-(1-(2-fluorobenzyl)-5-(trifluoromethyl)-1H-pyrazol-4-yl)isoxazole-4-carboxylic acid]: the pIC50 under setting [2] is 5.00 to 6.00.

`CCOC(=O)c1c(-c2onc(-c3c(F)cccc3Cl)c2C(=O)OC)cnn1-c1cccc(Cl)c1` [Example 10, methyl 3-(2-chloro-6-fluorophenyl)-5-(1-(3-chlorophenyl)-5-(ethoxycarbonyl)-1H-pyrazol-4-yl)isoxazole-4-carboxylate]: the pIC50 under setting [2] was 7.00 to 8.00.

For the compound `O=C(c1c(-c2c(F)cccc2Cl)noc1-c1cnn(-c2ccccc2Cl)c1C(F)(F)F)N1CCCO1` [Example B-49, (3-(2-chloro-6-fluorophenyl)-5-(1-(2-chlorophenyl)-5-(trifluoromethyl)-1H-pyrazol-4-yl)isozazol-4-yl)(isoxazolidin-2-yl)methanone], under setting [2], the pIC50 was 5.00 to 6.00.

As to `CCOC(=O)c1c(-c2ccncc2F)noc1-c1cnn(-c2cccc(F)c2)c1C(F)(F)F` [Example B-14, ethyl 5-(1-(3-fluorophenyl)-5-(trifluoromethyl)-1H-pyrazol-4-yl)-3-(3-fluoropyridin-4-yl)isoxazole-4-carboxylate], the pIC50 under setting [2] was 5.00 to 6.00.

Take `O=C(c1c(-c2c(F)cccc2Cl)noc1-c1cnn(-c2ccccc2F)c1C(F)(F)F)N1CCCO1` [Example B-52, (3-(2-chloro-6-fluorophenyl)-5-(1-(2-fluorophenyl)-5-(trifluoromethyl)-1H-pyrazol-4-yl)isoxazol-4-yl)(isoxazolidin-2-yl)methanone]: the pIC50 under setting [2] was 5.00 to 6.00.

Regarding `CC(=O)Nc1cccc(-n2ncc(-c3onc(-c4c(F)cccc4Cl)c3C(=O)OC(C)C)c2C(F)(F)F)c1` [Example B-78, isopropyl 5-(1-(3-acetamidophenyl)-5-(trifluoromethyl)-1H-pyrazol-4-yl)-3-(2-chloro-6-fluorophenyl)isoxazole-4-carboxylate], under setting [2], the pIC50 was 6.00 to 7.00.

`CCOC(=O)c1c(-c2onc(-c3c(F)cccc3Cl)c2C(=O)OC)cnn1-c1cccc(Cl)c1Cl` [Example 9, methyl 3-(2-chloro-6-fluorophenyl)-5-(1-(2,3-dichlorophenyl)-5-(ethoxycarbonyl)-1H-pyrazol-4-yl)isoxazole-4-carboxylate]: under setting [2], the pIC50 is 5.00 to 6.00.

Take `CCOC(=O)c1c(-c2c(F)cccc2Cl)noc1-c1cnn(-c2ccccc2N)c1C(F)(F)F` [Example B-98, ethyl 5-(1-(2-aminophenyl)-5-(trifluoromethyl)-1H-pyrazol-4-yl)-3-(2-chloro-6-fluorophenyl)isoxazole-4-carboxylate]: the pIC50 (Homo sapiens, 48 h, read-out: D: IC50 (Tcell proliferation)) was 7.00 to 8.00.

On to `Fc1cc(F)cc(-n2ncc(-c3onc(-c4c(F)cccc4Cl)c3Br)c2C(F)(F)F)c1` [Example B-27, 4-bromo-3-(2-chloro-6-fluorophenyl)-5-(1-(3,5-difluorophenyl)-5-(trifluoromethyl)-1H-pyrazol-4-yl)isoxazole], for which the pIC50 under setting [2] was 6.00 to 7.00.

As for `COC(=O)c1c(-c2c(F)cccc2Cl)noc1-c1cnn(-c2ccccc2I)c1C(F)(F)F` [Example 88, methyl 3-(2-chloro-6-fluorophenyl)-5-(1-(2-iodophenyl)-5-(trifluoromethyl)-1H-pyrazol-4-yl)isoxazole-4-carboxylate], the pIC50 under setting [2] is 5.00 to 6.00.

With `CSC(=O)c1c(-c2c(F)cccc2Cl)noc1-c1cnn(-c2cccc(F)c2)c1C(F)(F)F` [Example 128, S-methyl 3-(2-chloro-6-fluorophenyl)-5-(1-(3-fluorophenyl)-5-(trifluoromethyl)-1H-pyrazol-4-yl)isoxazole-4-carbothioate], the pIC50 under setting [2] is over 8.00.

Take `Fc1cccc(Cl)c1-c1noc(-c2cnn(-c3cccc(Cl)c3)c2C(F)(F)F)c1-c1nnco1` [IB-5, 2-(3-(2-chloro-6-fluorophenyl)-5-(1-(3-chlorophenyl)-5-(trifluoromethyl)-1H-pyrazol-4-yl)isoxazol-4-yl)-1,3,4-oxadiazole]: the pIC50 under setting [1] was over 8.00.

Regarding `O=C(O)c1c(-c2ccccc2Cl)noc1-c1cnn(-c2cccc(Cl)c2)c1C(F)(F)F` [Example B-42, 3-(2-chlorophenyl)-5-(1-(3-chlorophenyl)-5-(trifluoromethyl)-1H-pyrazol-4-yl)-isoxazole-4-carboxylic acid], under setting [2], the pIC50 is 5.00 to 6.00.

For the compound `CCOC(=O)c1c(-c2c(Cl)cncc2Cl)noc1-c1cnn(-c2ccccc2Cl)c1C(F)(F)F` [Example B-16, ethyl 5-(1-(2-chlorophenyl)-5-(trifluoromethyl)-1H-pyrazol-4-yl)-3-(3,5-dichloropyridin-4-yl)isoxazole-4-carboxylate], the pIC50 under setting [2] is 5.00 to 6.00.

Consider `COC(=O)c1c(-c2c(F)cccc2Cl)noc1-c1cnn(CC(F)(F)F)c1C(F)(F)F` [Example 65, methyl 3-(2-chloro-6-fluorophenyl)-5-(1-(2,2,2-trifluoroethyl)-5-(trifluoromethyl)-1H-pyrazol-4-yl)isoxazole-4-carboxylate], for which the pIC50 under setting [2] is 7.00 to 8.00.

Consider `Fc1ccccc1-n1ncc(-c2onc(-c3c(F)cccc3Cl)c2Br)c1C(F)(F)F` [Example B-26, 4-bromo-3-(2-chloro-6-fluorophenyl)-5-(1-(2-fluorophenyl)-5-(trifluoromethyl)-1H-pyrazol-4-yl)isoxazole], for which the pIC50 under setting [2] was 5.00 to 6.00.

As for `N#Cc1c(-c2c(F)cccc2Cl)noc1-c1cnn(-c2cccc(F)c2)c1C(F)(F)F` [Example 120, 3-(2-chloro-6-fluorophenyl)-5-(1-(3-fluorophenyl)-5-(trifluoromethyl)-1H-pyrazol-4-yl)isoxazole-4-carbonitrile], the pIC50 under setting [2] is 6.00 to 7.00.

Regarding `CON(C)C(=O)c1c(-c2c(F)cccc2Cl)noc1-c1cnn(-c2ccccc2F)c1C(F)(F)F` [Example B-53, 3-(2-chloro-6-fluorophenyl)-5-(1-(2-fluorophenyl)-5-(trifluoromethyl)-1H-pyrazol-4-yl)-N-methoxy-N-methylisoxazole-4-carboxamide], the pIC50 under setting [2] is 6.00 to 7.00.

Turning to `CCOC(=O)c1c(-c2ccncc2F)noc1-c1cnn(-c2ccccc2Cl)c1C(F)(F)F` [Example B-13, ethyl 5-(1-(2-chlorophenyl)-5-(trifluoromethyl)-1H-pyrazol-4-yl)-3-(3-fluoropyridin-4-yl)isoxazole-4-carboxylate], the pIC50 under setting [2] was 7.00 to 8.00.

On to `Cc1nnc(-c2c(-c3c(F)cccc3Cl)noc2-c2cnn(-c3ccccc3Cl)c2C(F)(F)F)s1` [IB-20, 3-(2-chloro-6-fluorophenyl)-5-(1-(2-chlorophenyl)-5-(trifluoromethyl)-1H-pyrazol-4-yl)-4-(5-methyl-1,3,4-thiadiazol-2-yl)isoxazole], for which, under setting [1], the pIC50 is 6.00 to 7.00.

As to `Cc1nnc(-c2c(-c3c(F)cccc3Cl)noc2-c2cnn(-c3cccnc3)c2C(F)(F)F)s1` [IB-21, 3-(2-chloro-6-fluorophenyl)-4-(5-methyl-1,3,4-thiadiazol-2-yl)-5-(1-(pyridin-3-yl)-5-(trifluoromethyl)-1H-pyrazol-4-yl)isoxazole], the pIC50 under setting [1] was 7.00 to 8.00.

In the case of `CON(C)C(=O)c1c(-c2c(F)cccc2Cl)noc1-c1cnn(-c2cccc(Cl)c2)c1C(F)(F)F` [Example 63, 3-(2-chloro-6-fluorophenyl)-5-(1-(3-chlorophenyl)-5-(trifluoromethyl)-1H-pyrazol-4-yl)-N-methoxy-N-methylisoxazole-4-carboxamide], the pIC50 under setting [2] was 6.00 to 7.00.

`NC(=S)c1c(-c2c(F)cccc2Cl)noc1-c1cnn(-c2ccccc2Cl)c1C(F)(F)F` [Example B-101, 3-(2-chloro-6-fluorophenyl)-5-(1-(2-chlorophenyl)-5-(trifluoromethyl)-1H-pyrazol-4-yl)isoxazole-4-carbothioamide]: the pIC50 under setting [2] was 5.00 to 6.00.

With `COC(=O)c1c(-c2c(F)cccc2Cl)noc1-c1cnn(-c2cccc(F)c2)c1C(F)(F)F` [Example 5, methyl 3-(2-chloro-6-fluorophenyl)-5-(1-(3-fluorophenyl)-5-(trifluoromethyl)-1H-pyrazol-4-yl)isoxazole-4-carboxylate], the pIC50 under setting [2] is over 8.00.

In the case of `CCOC(=O)c1c(-c2c(F)cccc2Cl)noc1-c1cnn(-c2ccncc2)c1C(F)(F)F` [Example B-38, ethyl 3-(2-chloro-6-fluorophenyl)-5-(1-(pyridin-4-yl)-5-(trifluoromethyl)-1H-pyrazol-4-yl)-isoxazole-4-carboxylate], the pIC50 under setting [2] is over 8.00.
